Experimental data reported in patent publication US20250122169A1, “PPARG INVERSE AGONISTS AND USES THEREOF” (Flare Therapeutics Inc., priority 2021, published 2025).

Experiments:
[1] = target: T1, PPARG/RXRA LBD heterodimer (Homo sapiens, UniProt P37231); assay: PPARγ-NCOR1 recruitment assay (TR-FRET); assay type: biochemical; conditions: for Emax: 3 h, maximal extent, T0070907 defined as 100%, DMSO 0%, read-out: % NCOR recruitment relative to T907; for EC50: TR-FRET, NCOR1 ID2 peptide, 80 nM Rosiglitazone, 3 hours, read-out: PPARG-NCOR recruitment assay EC50
T1 construct: 2 nM WT PPARG LBD (E. coli expressed, His-TEV-Q203-Y477); fused on or other part: N-terminal His tag with TEV site on the PPARG LBD
Protocol: Compound potency (EC50) and maximal extent of NCOR1 recruitment to PPARG were assessed a TR-FRET binding assay measuring association of a biotinylated NCOR1 ID2 peptide (Biotin-[…]-amide) to PPARG/RXRA LBD heterodimer.
T1 sequence (O75376 2251-2273 limits assumed, one chain of several, further chain): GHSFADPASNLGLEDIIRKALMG

[2] = target: T2, PPARG/RXRA LBD heterodimer (Homo sapiens, UniProt P37231); assay: PPARγ-MED1 blockade assay (TR-FRET); assay type: biochemical; conditions: for EC50: TR-FRET, MED1 LxxLL peptide, 80 nM Rosiglitazone, 3 hours; for Emax: maximal extent, GW9662 defined as 100%, DMSO 0%, read-out: % MED1 blockade relative to GW9662
T2 construct: His-TEV-Q203-Y477; Uniprot ID P37231-2; made in house; host or cells: E. coli
T2 sequence (P37231 203-477 isoform P37231-2): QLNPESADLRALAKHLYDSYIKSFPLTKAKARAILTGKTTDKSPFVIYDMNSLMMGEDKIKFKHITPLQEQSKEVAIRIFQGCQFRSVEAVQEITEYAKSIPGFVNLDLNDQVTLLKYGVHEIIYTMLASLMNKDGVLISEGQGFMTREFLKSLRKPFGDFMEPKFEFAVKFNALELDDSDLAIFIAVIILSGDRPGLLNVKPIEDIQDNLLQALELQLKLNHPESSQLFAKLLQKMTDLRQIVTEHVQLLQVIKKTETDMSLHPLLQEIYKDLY
T2 sequence (P19793 228-462 partner limits assumed): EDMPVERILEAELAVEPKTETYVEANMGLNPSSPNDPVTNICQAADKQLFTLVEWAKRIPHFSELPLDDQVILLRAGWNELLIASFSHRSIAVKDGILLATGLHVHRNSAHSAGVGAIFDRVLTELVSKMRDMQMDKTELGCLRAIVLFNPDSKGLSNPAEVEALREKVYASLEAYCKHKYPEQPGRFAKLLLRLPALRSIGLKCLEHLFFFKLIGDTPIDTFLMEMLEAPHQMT
Protocol: Compound potency (IC50) and maximal extent of MED1 repulsion to PPARG were assessed a TR-FRET binding assay measuring association of a biotinylated MED1 LxxLL peptide (Biotin-[…]-amide) to PPARG/RXRA LBD heterodimer.

[3] = tested on: ANGPTL4, a PPARG target gene, in HT1197 (RXRA S427F mutation) cells; assay: Bladder cancer pharmacodynamic assay, HT1197 cell assay (qPCR of PPARG target gene ANGPTL4); assay type: cell-based; conditions: Homo sapiens; for inhibition at 0.1 µM: read-out: % inhibition of ANGPTL4 @ 100 nM, 100 nM compound, 24 hours, relative to DMSO control; for EC50: 24 hours treatment, qPCR
Protocol: Quantitative PCR was performed using an ABI QuantStudio 7 Flex Reaction system. Data were analyzed and reported relative to DMSO control using the comparative Ct method (ΔΔCt).

| SMILES | Emax [1] [%] | EC50 [1] [nM] | EC50 [2] [nM] | Emax [2] [%] | EC50 [3] [nM] | inhibition at 0.1 µM [3] [%] |
| --- | --- | --- | --- | --- | --- | --- |
| CN(C)C(=O)[C@H]1CCCN(c2c(F)cc3[nH]c(-c4cc(C#N)ncc4S(C)(=O)=O)cc(=O)c3c2F)C1 (single isomer, unassigned) [Example 34] | > 100 | < 10 | < 10 | > 100 | – | 87 |
| N#Cc1ccc(Cl)c(-c2cc(=O)c3cc(F)c(F)cc3[nH]2)n1 [Example 1, 5-chloro-6-(6,7-difluoro-4-oxo-1,4-dihydroquinolin-2-yl)picolinonitrile] | > 100 | 10 to 100 | 10 to 100 | > 100 | – | 91 |
| N#Cc1ccc(Cl)c(-c2cc(=O)c3ccccc3[nH]2)n1 [Example 5, 5-chloro-6-(4-oxo-1,4-dihydroquinolin-2-yl)picolinonitrile] | < 100 | 10 to 100 | 10 to 100 | > 100 | – | 71 |
| N#Cc1ccc(Cl)c(-c2cc(=O)c3ccc(Cl)cc3[nH]2)n1 [Example 6, 5-chloro-6-(7-chloro-4-oxo-1,4-dihydroquinolin-2-yl)picolinonitrile] | > 100 | < 10 | < 10 | > 100 | – | 73 |
| CSc1ccc(C#N)nc1-c1cc(=O)c2c(F)cc(F)cc2[nH]1 [Example 8, 6-(5,7-difluoro-4-oxo-1,4-dihydroquinolin-2-yl)-5-(methylthio)picolinonitrile] | > 100 | > 10000 | > 10000 | > 100 | – | – |
| COc1cnc(C#N)cc1-c1cc(=O)c2c(F)cc(F)cc2[nH]1 [Example 9, 4-(5,7-difluoro-4-oxo-1,4-dihydroquinolin-2-yl)-5-methoxypicolinonitrile] | < 100 | 100 to 1000 | 100 to 1000 | > 100 | – | 22 |
| CN(C)CCOc1cnc(C#N)cc1-c1cc(=O)c2c(F)cc(F)cc2[nH]1 [Example 11, 4-(5,7-difluoro-4-oxo-1,4-dihydroquinolin-2-yl)-5-(2-(dimethylamino)-ethoxy)-picolinonitrile] | > 100 | 1000 to 10000 | 1000 to 10000 | > 100 | – | 58 |
| CCSc1cnc(C#N)cc1-c1cc(=O)c2c(F)cc(F)cc2[nH]1 [Example 12, 4-(5,7-difluoro-4-oxo-1,4-dihydroquinolin-2-yl)-5-(ethylthio)picolinonitrile] | < 100 | > 10000 | > 10000 | < 100 | – | 18 |
| CN1CCC(c2c(F)cc3[nH]c(-c4nc(C#N)ccc4Cl)cc(=O)c3c2F)CC1 [Example 16, 5-chloro-6-(5,7-difluoro-6-(1-methylpiperidin-4-yl)-4-oxo-1,4-dihydroquinolin-2-yl)picolinonitrile] | > 100 | 10 to 100 | 10 to 100 | > 100 | – | 85 |
| N#Cc1ccc(Cl)c(-c2cc(=O)c3c(F)c(N4CCS(=O)(=O)CC4)c(F)cc3[nH]2)n1 [Example 17, 5-chloro-6-(6-(1,1-dioxidothiomorpholino)-5,7-difluoro-4-oxo-1,4-dihydroquinolin-2-yl)picolinonitrile] | > 100 | 10 to 100 | 10 to 100 | > 100 | – | 78 |
| N#Cc1cc(-c2cc(=O)c3c(F)c(N4CCS(=O)(=O)CC4)c(F)cc3[nH]2)c(Cl)cn1 [Example 18, 5-chloro-4-(6-(1,1-dioxidothiomorpholino)-5,7-difluoro-4-oxo-1,4-dihydroquinolin-2-yl)picolinonitrile] | > 100 | 10 to 100 | 10 to 100 | > 100 | – | 57 |
| CN(C)C(=O)C1CCN(c2c(F)cc3[nH]c(-c4cc(C#N)ncc4Cl)cc(=O)c3c2F)CC1 [Example 19, 1-(2-(5-chloro-2-cyanopyridin-4-yl)-5,7-difluoro-4-oxo-1,4-dihydroquinolin-6-yl)-N,N-dimethylpiperidine-4-carboxamide] | > 100 | 10 to 100 | 10 to 100 | > 100 | – | 84 |
| CN1CCC(c2c(F)cc3[nH]c(-c4cc(C#N)ncc4Cl)cc(=O)c3c2F)CC1 [Example 20, 5-chloro-4-(5,7-difluoro-6-(1-methylpiperidin-4-yl)-4-oxo-1,4-dihydroquinolin-2-yl)picolinonitrile] | > 100 | 10 to 100 | 10 to 100 | > 100 | – | 80 |
| CN(C)C(=O)N1CCN(c2c(F)cc3[nH]c(-c4cc(C#N)ncc4Cl)cc(=O)c3c2F)CC1 [Example 21, 4-(2-(5-chloro-2-cyanopyridin-4-yl)-5,7-difluoro-4-oxo-1,4-dihydroquinolin-6-yl)-N,N-dimethylpiperazine-1-carboxamide] | > 100 | < 10 | < 10 | > 100 | – | 81 |

Further lines, with some results ahead:

| Emax [1] [%] | EC50 [1] [nM] | EC50 [2] [nM] | Emax [2] [%] | EC50 [3] [nM] | SMILES | inhibition at 0.1 µM [3] [%] |
| --- | --- | --- | --- | --- | --- | --- |
| > 100 | < 10 | < 10 | > 100 | 0.14 | N#Cc1cc(-c2cc(=O)c3c(F)cc(F)cc3[nH]2)c(Cl)cn1 [Example 2, 5-chloro-4-(5,7-difluoro-4-oxo-1,4-dihydroquinolin-2-yl)picolinonitrile] | 91 |
| > 100 | < 10 | < 10 | > 100 | 0.09 | N#Cc1ccc(Cl)c(-c2cc(=O)c3c(F)cc(F)cc3[nH]2)n1 [Example 3, 5-chloro-6-(5,7-difluoro-4-oxo-1,4-dihydroquinolin-2-yl)picolinonitrile] | 95 |
| > 100 | < 10 | < 10 | > 100 | – | N#Cc1cc(-c2cc(=O)c3ccc(Cl)cc3[nH]2)c(Cl)cn1 [Example 4, 5-chloro-4-(7-chloro-4-oxo-1,4-dihydroquinolin-2-yl)picolinonitrile] | 88 |
| > 100 | > 10000 | > 10000 | > 100 | – | COc1ccc(C#N)nc1-c1cc(=O)c2c(F)cc(F)cc2[nH]1 [Example 7, 6-(5,7-difluoro-4-oxo-1,4-dihydroquinolin-2-yl)-5-methoxypicolinonitrile] | 23 |
| > 100 | 10 to 100 | 10 to 100 | > 100 | – | CN1CCN(c2c(F)cc3[nH]c(-c4nc(C#N)ccc4Cl)cc(=O)c3c2F)CC1 [Example 13, 5-chloro-6-(5,7-difluoro-6-(4-methylpiperazin-1-yl)-4-oxo-1,4-dihydroquinolin-2-yl)picolinonitrile] | 78 |
| > 100 | 10 to 100 | 10 to 100 | > 100 | – | CN1CCN(c2cc3c(=O)cc(-c4cc(C#N)ncc4Cl)[nH]c3cc2Cl)CC1 [Example 14, 5-chloro-4-(7-chloro-6-(4-methylpiperazin-1-yl)-4-oxo-1,4-dihydroquinolin-2-yl)picolinonitrile] | 88 |
| > 100 | 10 to 100 | 10 to 100 | > 100 | 3.1 | CN1CCN(c2c(F)cc3[nH]c(-c4cc(C#N)ncc4Cl)cc(=O)c3c2F)CC1 [Example 15, 5-chloro-4-(5,7-difluoro-6-(4-methylpiperazin-1-yl)-4-oxo-1,4-dihydroquinolin-2-yl)picolinonitrile] | 81 |
| – | – | – | – | 0.49 | CS(=O)(=O)c1cnc(C#N)cc1-c1cc(=O)c2c(F)cc(F)cc2[nH]1 [Example 29, 4-(5,7-difluoro-4-oxo-1,4-dihydroquinolin-2-yl)-5-(methylsulfonyl)picolinonitrile] | 90 |
